Laboratory results taken from publication PMC9133015 (Nature Communications, 2022).
Several values for one entry are separate records, joined by “and”; a condition that tells them apart may be missing. Equal entries are not always repeated.

Key:
[1] = tested on: DU145 cells; test: Anti-proliferation activity assay (CCK8, 72 h); type: cell-based, human; conditions: DU145, replicates
[2] = tested on: PC-3 cells; test: Anti-proliferation activity assay (CCK8, 72 h); type: cell-based, human; conditions: PC-3, replicates
[3] = tested on: 22Rv1 cells; test: Anti-proliferation activity assay (CCK8, 72 h); type: cell-based, human; conditions: 22Rv1, replicates
[4] = tested on: RWPE-1 cells; test: Anti-proliferation activity assay (CCK8, 72 h); type: cell-based; conditions: RWPE1, replicates
[5] = tested on: PC-3 cells; test: Cell growth assay (5-day course); type: cell-based, human; conditions: PC-3, 40 µM, replicates
[6] = tested on: 22Rv1 cells; test: Colony formation assay; type: cell-based, human; conditions: 22Rv1, 20 μM, replicates
[7] = tested on: DU145 cells; test: Colony formation assay; type: cell-based, human; conditions: DU145, 40 μM, replicates
[8] = tested on: PC-3 cells; test: Colony formation assay; type: cell-based, human; conditions: 40 µM, replicates
[9] = tested on: 22Rv1 cells; test: Migration assay (transwell); type: cell-based, human; conditions: 22Rv1, 20 μM, replicates
[10] = tested on: DU145 cells; test: Migration assay (transwell); type: cell-based, human; conditions: DU145, 40 μM, replicates
[11] = tested on: PC-3 cells; test: Migration assay (transwell); type: cell-based, human; conditions: PC-3; 40 µM; replicates
[12] = tested on: DU145 cells; test: Invasion assay (transwell); type: cell-based, human; conditions: DU145, 40 μM, replicates
[13] = tested on: PC-3 cells; test: Invasion assay (transwell); type: cell-based, human; conditions: PC-3; 40 µM; replicates
[14] = tested on: 22Rv1 cells; test: Invasion assay (transwell); type: cell-based, human; conditions: 22Rv1, 20 μM, replicates
[15] = tested on: 22Rv1 cells; test: Apoptosis assay (Annexin V-APC/PI flow cytometry); type: cell-based, human; conditions: 22Rv1, 20 μM, replicates
[16] = tested on: DU145 cells; test: Apoptosis assay (Annexin V-APC/PI flow cytometry); type: cell-based, human; conditions: DU145, 40 μM, replicates
[17] = tested on: PC-3 cells; test: Apoptosis assay (Annexin V-APC/PI flow cytometry); type: cell-based, human; conditions: PC-3; 40 µM; replicates
[18] = tested on: 22Rv1 cells; test: Cell cycle assay (PI flow cytometry); type: cell-based, human; conditions: 22Rv1, 20 μM, replicates
[19] = tested on: DU145 cells; test: Cell cycle assay (PI flow cytometry); type: cell-based, human; conditions: DU145, 40 μM, replicates
[20] = tested on: PC-3 cells; test: Cell cycle assay (PI flow cytometry); type: cell-based, human; conditions: PC-3, 40 µM, replicates
[21] = tested on: DU145 xenograft; test: In vivo antitumor activity, DU145 xenograft mouse model; set-up: species or system BALB/c nude mice; conditions: for Tumor volume (Fig. 7a): individual mice 1-10, in cm³ (unit assumed)
[22] = tested on: DU145 xenograft; test: H&E and Ki67 staining of xenograft tumor tissues; type: in vivo, BALB/c nude mice; conditions: DU145, reference drug groups, replicates

Compound: CNC(=O)c1ccc(N2C(=S)N(c3ccc(C#N)c(C(F)(F)F)c3)C(=O)C2(C)C)cc1F [enzalutamide]
- optical density ([1]; 2.5 uM): 1.167 and 1.145 and 1.124
- optical density ([1]; 5 uM): 1.127 and 1.118 and 1.073
- optical density ([1]; 10 uM): 1.073 and 1.05 and 1.035
- optical density ([1]; 20 uM): 0.93 and 0.926 and 0.882
- optical density ([1]; 40 uM): 0.602 and 0.626 and 0.546
- optical density ([1]; 80 uM): 0.325 and 0.374 and 0.256
- optical density ([2]; 2.5 uM): 1.074 and 1.037 and 1.019
- optical density ([2]; 5 uM): 1.05 and 1.004 and 0.976
- optical density ([2]; 10 uM): 1.021 and 0.964 and 0.924
- optical density ([2]; 20 uM): 0.935 and 0.906 and 0.894
- optical density ([2]; 40 uM): 0.769 and 0.721 and 0.688
- optical density ([2]; 80 uM): 0.516 and 0.456 and 0.403
- optical density ([3]; 2.5 uM): 0.81 and 0.838 and 0.791
- optical density ([3]; 5 uM): 0.775 and 0.808 and 0.759
- optical density ([3]; 10 uM): 0.619 and 0.678 and 0.623
- optical density ([3]; 20 uM): 0.455 and 0.528 and 0.472
- optical density ([3]; 40 uM): 0.22 and 0.347 and 0.272
- optical density ([3]; 80 uM): 0.191
- optical density ([4]; 2.5 uM): 0.992 and 1.025 and 0.996
- optical density ([4]; 5 uM): 0.949 and 0.989 and 0.956
- optical density ([4]; 10 uM): 0.858 and 0.962 and 0.898
- optical density ([4]; 20 uM): 0.786 and 0.838 and 0.802
- optical density ([4]; 40 uM): 0.517 and 0.686 and 0.593
- optical density ([4]; 80 uM): 0.393 and 0.433 and 0.408
- optical density ([5]; day 0): 0.269
- optical density ([5]; day 1): 0.288 and 0.29 and 0.285
- optical density ([5]; day 2): 0.517 and 0.519 and 0.473
- optical density ([5]; day 3): 0.701 and 0.705 and 0.6
- optical density ([5]; day 4): 1.438 and 1.323 and 1.218
- Colony formation (cell number) [6]: 560 cell number and 530 cell number and 570 cell number
- Colony formation (cell number) [7]: 205 cell number and 218 cell number and 226 cell number
- Colony formation (cell number) [8]: 160 cell number and 145 cell number
- Cell migration (cell number) [9]: 1459 cell number and 1378 cell number and 1390 cell number
- Cell migration (cell number) [10]: 4002 cell number and 3988 cell number and 4105 cell number
- Cell migration (cell number) [11]: 1100 cell number and 1076 cell number and 923 cell number
- Cell invasion (cell number) [12]: 1897 cell number and 1923 cell number and 1867 cell number
- Cell invasion (cell number) [13]: 2300 cell number and 2405 cell number and 2379 cell number
- Cell invasion (cell number) [14]: 1680 cell number and 1543 cell number
- Apoptosis (%) [15]: 4.36% and 5.45% and 6.23%
- Apoptosis (%) [16]: 11.89% and 10.52% and 9.68%
- Apoptosis (%) [17]: 5.39% and 5.46% and 5.82%
- Cell cycle percentages ( % ) G0/G1 [18]: 69.98% and 71.27% and 73.69%
- Cell cycle percentages ( % ) G2/M [18]: 14.06% and 12.61% and 11.06%
- Cell cycle percentages ( % ) S [18]: 15.96% and 16.12% and 15.25%
- Cell cycle percentages ( % ) G0/G1 [19]: 57.27% and 58.94% and 59.05%
- Cell cycle percentages ( % ) G2/M [19]: 23.68% and 22.3% and 24.16%
- Cell cycle percentages ( % ) S [19]: 19.05% and 18.76% and 16.79%
- Cell cycle percentages ( % ) G0/G1 ([20]; G0/G1): 70.26% and 71.93% and 73.13%
- Cell cycle percentages ( % ) G2/M ([20]; G2/M): 18.02% and 17.63% and 16.26%
- Cell cycle percentages ( % ) S ([20]; S): 11.72% and 10.44% and 10.61%
- antitumor activity (in words) ([21]; DU145 xenograft, 100 mg/kg orally once a day, seven weeks): only delayed the tumor growth
- Tumor volume (Fig. 7a) ([21]; Day 1): 0.06831 and 0.0728 and 0.08842 and 0.07149 and 0.08267 and 0.0792 and 0.07365 and 0.09986 and 0.09475 and 0.08367
- Tumor volume (Fig. 7a) ([21]; Day 3): 0.1054 and 0.1066 and 0.1367 and 0.1112 and 0.1273 and 0.1097 and 0.1065 and 0.1474 and 0.1553 and 0.1239
- Tumor volume (Fig. 7a) ([21]; Day 5): 0.1354 and 0.1343 and 0.1923 and 0.144 and 0.1749 and 0.1417 and 0.1334 and 0.2305 and 0.2202 and 0.1878
- Tumor volume (Fig. 7a) ([21]; Day 7): 0.1816 and 0.1822 and 0.2496 and 0.1945 and 0.234 and 0.2013 and 0.2322 and 0.3186 and 0.2993 and 0.2348
- Tumor volume (Fig. 7a) ([21]; Day 9): 0.236 and 0.2398 and 0.2946 and 0.2457 and 0.337 and 0.2675 and 0.2935 and 0.3821 and 0.38 and 0.3125
- Tumor volume (Fig. 7a) ([21]; Day 11): 0.2749 and 0.3065 and 0.4056 and 0.2756 and 0.3984 and 0.3105 and 0.3205 and 0.5039 and 0.4644 and 0.382
- Tumor volume (Fig. 7a) ([21]; Day 13): 0.3292 and 0.3636 and 0.3775 and 0.3177 and 0.4798 and 0.3714 and 0.3893 and 0.5706 and 0.5218 and 0.4116
- Tumor volume (Fig. 7a) ([21]; Day 15): 0.4104 and 0.4397 and 0.4958 and 0.3678 and 0.5629 and 0.4479 and 0.4493 and 0.6357 and 0.6164 and 0.4936
- Tumor volume (Fig. 7a) ([21]; Day 17): 0.473 and 0.4645 and 0.5899 and 0.4301 and 0.6355 and 0.511 and 0.4922 and 0.7115 and 0.6607 and 0.5477
- Tumor volume (Fig. 7a) ([21]; Day 19): 0.458 and 0.4883 and 0.6303 and 0.4489 and 0.6566 and 0.5391 and 0.5247 and 0.7614 and 0.6322 and 0.6372
- Tumor weight (Fig. 7c) ([21]; reference drug groups, individual mice, in g (unit assumed)): 1.15 and 1.34 and 1.28 and 1.42 and 1.33 and 1.5 and 1.37 and 1.08 and 1.22 and 1.16
- Positive rate ( % ) (Fig. 7f) [22]: 30.71% and 31.3% and 29.1%
